Data published in patent publication US4918099A, “Drug, preparation and use thereof” (priority 1985, dated 1990).
Where two headings read alike, the source gives them in different places.

Tests used:
[1] = system: lipid peroxidation in the mitochondria of rat liver; conditions: Arch. Pharm. Res. 7, 63-64, 1984; cited from earlier work
[2] = Comparison of synthetic substances with full extract; conditions: synthetically prepared substance
[3] = Rev. Latinoam. Microbiol. 1, 225-232 (1958); cited from earlier work
[4] = system: platelet aggregation in diabetic human plasma; experiment: Platelet aggregation in diabetic human plasma induced by ADP; format: cell-based; conditions: for activity at 1000 µM / inhibition at 1000 µM / activity at 100 µM / inhibition at 100 µM: Homo sapiens, Platelet; for activity at 1000 µM / activity at 100 µM: control 100
Description: (§1) The platelet aggregation was determined by a tubimetric method in a dual-channel aggregometer, assuming that a platelet-poor plasma represented 100% aggregation and that a platelet-rich plasma represented 0% aggregation. Each aggregometer tube was charged with 40 μl of platelet-rich plasma and 50 μl of test sample solution. The mixture was incubated at 37° C. for 2 min., whereupon 50 μl of ADP solution were added. Percent inhibition of the platelet aggregation caused by the test sample solution was calculated as follows: [formula]

[5] = Planta Med. 31, 214-220 (1977); cited from earlier work
[6] = system: platelet aggregation in normal human plasma; experiment: Platelet aggregation in normal human plasma induced by ADP; format: cell-based; conditions: for T/min, Aggregation (first value) / Tmax, Aggregation (first value): control 75.1; for activity at 1000 µM / inhibition at 1000 µM / activity at 100 µM / inhibition at 100 µM: Homo sapiens, Platelet; for activity at 1000 µM / activity at 100 µM: control 100
Description: as §1

plasmalipid = conditions: spontaneously hypertensive rats; Fette-Seifen-Anstrichmittel 87, 74-76 (1985); cited from earlier work
cyclo-oxygenase = conditions: conventional prostaglandin synthesis inhibitors; cited from earlier work
prostacyclin synthetase = conditions: conventional prostaglandin synthesis inhibitors; cited from earlier work
[7] = Increase of the peripheral insulin action in diabetic mice; format: in vivo; conditions: 0.46 mU/g, control group (FIG. 5)
Description: Diabetic mice were divided into a control group and a test group. A dose of 100 mg of brazilin per kg body weight was daily administered to the animals of the test group; instead of brazilin, the same amount of saline solution was injected intraperitoneally to the animals of the control group.
After 30 test days, the body weight of the animals of the test group was higher and the blood sugar values of these animals were lower as compared to the diabetic animals of the control group.
On the 30th test day, the animals were made to fast for 5 h; thereupon, they were injected intravenously with 0.46 mU/g of NPH insulin. Then, the blood sugar values were measured at respective intervals of 5 min.

[8] = 10^-3 M, read-out: T/min, Aggregation relative to control (second value)
[9] = 10^-3 M, read-out: Tmax, Aggregation relative to control (second value)
[10] = 10^-3 M, read-out: T/min, Inhibition
[11] = 10^-3 M, read-out: Tmax, Inhibition
[12] = 10^-4 M, read-out: Tmax, Aggregation relative to control (second value)
[13] = 10^-4 M, read-out: Tmax, Inhibition
[14] = 10^-4 M, read-out: T/min, Aggregation relative to control (second value)
[15] = 10^-4 M, read-out: T/min, Inhibition

Row | Compound | Tmax, Aggregation (first value) ([4]; 10^-3 M, control 78.7) | Tmax, Aggregation (first value) ([4]; 10^-4 M, control 78.7) | activity at 1000 µM [4, 9] | inhibition at 1000 µM [4, 11] | activity at 100 µM [4, 12] | inhibition at 100 µM [4, 13] | T/min, Aggregation (first value) ([6]; 10^-3 M) | Tmax, Aggregation (first value) ([6]; 10^-3 M) | T/min, Aggregation (first value) ([6]; 10^-4 M) | Tmax, Aggregation (first value) ([6]; 10^-4 M) | activity at 1000 µM [6, 8] | activity at 1000 µM [6, 9] | inhibition at 1000 µM [6, 10] | inhibition at 1000 µM [6, 11] | activity at 100 µM [6, 14] | activity at 100 µM [6, 12] | inhibition at 100 µM [6, 15] | inhibition at 100 µM [6, 13] | inhibition of cyclo-oxygenase (cyclo-oxygenase) | inhibition of prostacyclin synthetase (prostacyclin synthetase) | also measured
1 | Oc1cc2c(cc1O)[C@@H]1c3ccc(O)c(O)c3OC[C@]1(O)C2 [hematoxylin] | 52.5% | 76.3% | 66.5% | 33.5% | 96.8% | 3.2% | 11.7% | 22.6% | 58.8% | 68.1% | 15.6% | 30.8% | 84.4% | 69.8% | 78.4% | 90.6% | 21.7% | 9.4% |  |  | effect on lipid peroxidation in mitochondria of rat liver [1]: effect on the lipid peroxidation; effects compared with administration of major amounts of full extract [2]: substantially has the same effects; antibacterial effect [3]: antibacterial effect; T/min, Aggregation (first value) ([4]; 10^-3 M, control 78.7): 7.5%; activity at 1000 µM [4, 8]: 9.5%; inhibition at 1000 µM [4, 10]: 90.5%; inhibition of the platelet aggregation ([4]; conclusion on Tables 12 and 13): considerable inhibition of the platelet aggregation; anti-inflammatory effect [5]: anti-inflammatory effect; plasmalipid-reducing effect (plasmalipid): plasmalipid-reducing effect
2 | CC(=O)Oc1ccccc1C(=O)O [acetylsalicylic acid, reference compound] | 70.0% | 73.8% | 88.9% | 11.1% | 93.6% | 6.4% | 11.9% | 37.5% | 17.4% | 60.2% | 15.8% | 49.9% | 84.6% | 50.1% | 23.2% | 80.1% | 76.8% | 19.9% | inhibit the activity of cyclo-oxygenase | prostacyclin synthetase is also undesirably inhibited | 
3 | COc1ccc2c(c1)c(CC(=O)O)c(C)n2C(=O)c1ccc(Cl)cc1 [indomethacin] |  |  |  |  |  |  |  |  |  |  |  |  |  |  |  |  |  |  | inhibit the activity of cyclo-oxygenase | prostacyclin synthetase is also undesirably inhibited | 
4 | NPH insulin [reference compound] |  |  |  |  |  |  |  |  |  |  |  |  |  |  |  |  |  |  |  |  | blood sugar after i.v. NPH insulin in diabetic control mice [7]: cannot significantly change the blood sugar value
